Measured values from the supplement of paper PMC10627819.

What was measured:
[1] = tested on: S. pneumoniae D39V; test: fitness (endpoint OD595 vs no drug) (fraction); higher = more growth
In short: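 Plates with 384 wells were inoculated at OD595 0.01 using 30 µl of TSB, LB Lennox or CY, or 55 µl for S. pneumoniae. Incubation was at 37 °C, with OD595 measured every 30 min for 14 h. Fitness is the stationary-phase transition optical density over the robust mean of no-drug control wells, after first-reading background subtraction; it is capped at 1.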

[2] = tested on: B. subtilis 168; test: Bliss interaction score (quartile over a dose matrix) (fitness difference); higher = more antagonism (negative = synergy)
In short: (§1)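 Fitness is OD595 at stationary-phase entry relative to the plate's robust no-drug mean, capped at 1. Single-drug fitness was inferred from combinations. The Bliss score is observed minus product-expected fitness, summarised by quartiles over technical, biological and donor/recipient replicates.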

[3] = tested on: S. aureus DSM 20231; test: as above
In short: as §1

[4] = tested on: S. aureus Newman; test: as above
In short: as §1

[5] = tested on: S. pneumoniae D39V; test: as above
In short: as §1
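For Bliss interaction score (quartile over a dose matrix) in this document: first quartile when negative (synergy) and third quartile when positive (antagonism).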

C[C@@H](O)[C@H]1C(=O)N2C(C(=O)O)=C(SCCNC=N)C[C@H]12 [Imipenem] + CCC(C)C1C(=O)NC(=C)C(=O)NC(C(=O)NC(CSCC(C(=O)N1)NC(=O)/C(=C/C)/NC(=O)C(C(C)CC)N)C(=O)NC2C(SCC(NC(=O)CNC(=O)C3CCCN3C2=O)C(=O)NC(CCCCN)C(=O)NC4C(SCC(NC(=O)CNC(=O)C(NC(=O)C(NC(=O)C(NC(=O)CNC4=O)C)CC(C)C)CCSC)C(=O)NC(CC(=O)N)C(=O)NC(CCSC)C(=O)NC(CCCCN)C(=O)NC5C(SCC6C(=O)NC(C(=O)NC(CSC(C(C(=O)N6)NC(=O)C(NC5=O)C)C)C(=O)NC(CO)C(=O)NC(C(C)CC)C(=O)NC(CC7=CN=CN7)C(=O)NC(C(C)C)C(=O)NC(=C)C(=O)NC(CCCCN)C(=O)O)CC8=CN=CN8)C)C)C)CC(C)C [Nisin]
fitness, [1], main component drawn
Settings | first compound 0.005 µg/mL | first compound 0.0065 µg/mL | first compound 0.01 µg/mL | first compound 0.013 µg/mL | first compound 0.02 µg/mL | first compound 0.026 µg/mL
partner 0.4275 µg/mL | ≥ 1 | – | 0.988 | – | ≥ 1 | –
partner 0.855 µg/mL | 0.992 | – | 0.993 | – | ≥ 1 | –
partner 1.6 µg/mL | – | 0 | – | 0.193 | – | 0.448
partner 1.71 µg/mL | 0.133 | – | 0.0676 | – | 0.0904 | –
partner 3.2 µg/mL | – | 0 | – | 0.0047 | – | 0.0017
partner 6.4 µg/mL | – | 0 | – | 0.0067 | – | 0

main component drawn
Settings | Bliss interaction score
[2] | -0.0431
[3] | 0.0486
[4] | -0.0142
[5] | -0.0573

O=C(O[C@@H]1Cc2c(O)cc(O)cc2O[C@@H]1c1cc(O)c(O)c(O)c1)c1cc(O)c(O)c(O)c1 [EGCG] + Clc1ccc(COC(Cn2ccnc2)c2ccc(Cl)cc2Cl)c(Cl)c1 [Miconazole]
fitness, [1]
Settings | partner 1.073 µg/mL | partner 1.25 µg/mL | partner 2.145 µg/mL | partner 2.5 µg/mL | partner 4.29 µg/mL | partner 5 µg/mL
first compound 12.5 µg/mL | 0.956 | 0.913 | ≥ 1 | 0.805 | 0.824 | 0.858
first compound 25 µg/mL | 0.983 | ≥ 1 | ≥ 1 | 0.923 | 0.834 | 0.89
first compound 50 µg/mL | 0.987 | 0.952 | 0.984 | 0.86 | 0.98 | 0.933

Settings | Bliss interaction score
[2] | -0.0649
[3] | 0.278
[4] | 0.167
[5] | 0.0773

C[C@@H](O)[C@H]1C(=O)N2C(C(=O)O)=C(SCCNC=N)C[C@H]12 [Imipenem] + COc1c(N2C[C@@H]3CCCN[C@@H]3C2)c(F)cc2c(=O)c(C(=O)O)cn(C3CC3)c12 [Moxifloxacin]
fitness, [1]
Settings | first compound 0.005 µg/mL | first compound 0.0065 µg/mL | first compound 0.01 µg/mL | first compound 0.013 µg/mL | first compound 0.02 µg/mL | first compound 0.026 µg/mL
partner 0.0037 µg/mL | – | 0.821 | – | 0.805 | – | 0.751
partner 0.005 µg/mL | 0.968 | – | 0.949 | – | 0.963 | –
partner 0.0075 µg/mL | – | 0.853 | – | 0.863 | – | 0.649
partner 0.01 µg/mL | 0.99 | – | 0.981 | – | 0.976 | –
partner 0.015 µg/mL | – | 0.856 | – | 0.67 | – | 0.65
partner 0.02 µg/mL | 0.933 | – | 0.904 | – | 0.941 | –

Settings | Bliss interaction score
[2] | 0.0307
[3] | -0.0816
[4] | 0.0177
[5] | 0.0521
